Values quoted from earlier work, collected in patent US6441041B1, “(-)-hydroxycitric acid for the prevention of osteoporosis” (priority 2001, dated 2002).

Legend:
[1] = tested on: female Zucker obese (Fa/fa) rats; conditions: obese animals
[2] = tested on: female Zucker lean (Fa/−) rats; conditions: lean animals

O=C([O-])CC(O)(C(=O)[O-])C(O)C(=O)[O-].[Na+].[Na+].[Na+] (stereo not drawn) [Tri-NaHCA, trisodium (−)-hydroxycitrate]
Carcass protein and ash/mineral content in comparison with control [1]: increased carcass protein and ash/mineral content
Carcass protein and ash/mineral content in comparison with control [2]: increased carcass protein and ash/mineral content
